In US20260092071A1, “COMPOUNDS AND COMPOSITIONS AS SMARCA2/4 DEGRADERS AND USES THEREOF” (REGENTS OF THE UNIVERSITY OF MICHIGAN, priority 2022, published 2026):
Read-outs that look alike come from different tables or passages of the source.

Experiments:
[1] = molecular target: SMARCA4 (Homo sapiens, UniProt P51532); test: HiBiT assay for protein degradation, Hela SMARCA4-HiBiT cells (A series); assay type: cell-based; design: fuse HiBiT to the carboxy terminus of SMARCA2 (Promega CS302365) or SMARCA4 (Promega CS3023225); host or cells: HeLa (CRISPR/Cas9 HiBiT knock-in); conditions: Hela SMARCA4-HiBiT cells, 24 hours treatment; for DC50: read-out: SMARC A4 Hela HiBit DC50
Method in brief: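 SMARCA4 degradation was measured in HeLa cells in which HiBiT had been knocked into the SMARCA4 carboxy terminus via CRISPR/Cas9 (Promega CS3023225). Cells were maintained in DMEM with FBS and penicillin-streptomycin. At the end of treatment, SMARCA4 levels were read by lytic HiBiT luminescence (Nano-Glo®, Promega N3050), and data were analyzed with GraphPad Prism.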

[2] = molecular target: SMARCA2 (Homo sapiens, UniProt P51531); test: HiBiT assay for protein degradation, Hela SMARCA2-HiBiT cells (A series); assay type: cell-based; design: Hela cells were genetically modified via CRISPR/Cas9 to fuse HiBiT to the carboxy terminus of SMARCA2; host or cells: HeLa (CRISPR/Cas9 HiBiT knock-in); conditions: Hela SMARCA2-HiBiT cells, 24 hours treatment; for DC50: read-out: SMARC A2 Hela HiBit DC50; for Dmax: read-out: SMARC A2 Hela HiBit Dmax (%);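 as to SMARC A2 Hela HiBit Dmax (%): 24 h compound treatment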
Method in brief: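 SMARCA2 degradation was measured in HeLa cells whose endogenous SMARCA2 carries a carboxy-terminal HiBiT tag introduced by CRISPR/Cas9 (Promega CS302365). Cells were maintained in DMEM with FBS and penicillin-streptomycin. SMARCA2 levels were read at the end of the experiment by Nano-Glo® HiBiT lytic luminescence (Promega N3050) and analyzed in GraphPad Prism.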

[3] = read-out: SMARC A4 Hela HiBit Dmax

Chain of SMARCA4 (P51532 whole entry): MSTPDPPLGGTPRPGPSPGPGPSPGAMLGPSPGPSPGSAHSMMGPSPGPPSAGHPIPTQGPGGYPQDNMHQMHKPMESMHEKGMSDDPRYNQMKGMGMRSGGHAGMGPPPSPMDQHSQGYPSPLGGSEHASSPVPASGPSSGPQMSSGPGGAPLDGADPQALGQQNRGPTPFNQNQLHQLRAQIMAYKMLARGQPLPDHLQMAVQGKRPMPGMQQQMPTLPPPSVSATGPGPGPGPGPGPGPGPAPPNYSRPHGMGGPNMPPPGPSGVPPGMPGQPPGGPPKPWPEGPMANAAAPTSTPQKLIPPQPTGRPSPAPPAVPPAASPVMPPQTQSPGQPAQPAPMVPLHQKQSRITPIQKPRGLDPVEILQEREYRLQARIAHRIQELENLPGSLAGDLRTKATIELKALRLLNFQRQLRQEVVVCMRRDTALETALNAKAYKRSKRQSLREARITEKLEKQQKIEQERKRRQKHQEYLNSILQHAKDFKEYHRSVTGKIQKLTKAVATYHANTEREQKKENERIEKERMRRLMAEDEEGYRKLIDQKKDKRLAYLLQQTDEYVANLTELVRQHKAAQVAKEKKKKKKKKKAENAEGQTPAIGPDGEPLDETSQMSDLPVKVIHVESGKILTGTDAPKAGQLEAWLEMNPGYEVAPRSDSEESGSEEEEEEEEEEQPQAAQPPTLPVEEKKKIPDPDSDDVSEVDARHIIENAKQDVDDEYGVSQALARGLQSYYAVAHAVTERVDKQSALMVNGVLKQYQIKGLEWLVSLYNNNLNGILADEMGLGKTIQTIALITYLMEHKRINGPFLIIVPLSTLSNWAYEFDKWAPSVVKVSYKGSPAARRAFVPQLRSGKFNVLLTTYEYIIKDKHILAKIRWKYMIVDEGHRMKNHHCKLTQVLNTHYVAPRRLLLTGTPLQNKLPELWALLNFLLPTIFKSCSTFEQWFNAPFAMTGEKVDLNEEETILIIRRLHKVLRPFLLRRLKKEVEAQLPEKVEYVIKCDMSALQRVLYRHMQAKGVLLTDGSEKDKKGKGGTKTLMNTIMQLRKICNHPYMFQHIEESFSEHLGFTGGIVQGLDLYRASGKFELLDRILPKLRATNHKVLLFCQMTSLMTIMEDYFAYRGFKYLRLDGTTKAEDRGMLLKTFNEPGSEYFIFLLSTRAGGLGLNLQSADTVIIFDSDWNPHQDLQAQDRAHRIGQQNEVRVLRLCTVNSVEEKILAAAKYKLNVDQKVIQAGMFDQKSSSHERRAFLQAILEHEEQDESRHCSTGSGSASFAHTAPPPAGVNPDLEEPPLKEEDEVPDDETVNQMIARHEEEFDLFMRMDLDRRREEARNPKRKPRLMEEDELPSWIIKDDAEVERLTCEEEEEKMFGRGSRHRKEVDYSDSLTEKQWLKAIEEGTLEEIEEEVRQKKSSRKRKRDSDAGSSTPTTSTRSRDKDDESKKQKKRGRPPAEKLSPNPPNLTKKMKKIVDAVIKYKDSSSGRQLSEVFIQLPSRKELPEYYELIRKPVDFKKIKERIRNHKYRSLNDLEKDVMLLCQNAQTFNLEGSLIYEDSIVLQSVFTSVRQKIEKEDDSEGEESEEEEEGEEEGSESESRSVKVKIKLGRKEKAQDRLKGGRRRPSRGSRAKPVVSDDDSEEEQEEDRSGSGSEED
Chain of SMARCA2 (P51531 whole entry): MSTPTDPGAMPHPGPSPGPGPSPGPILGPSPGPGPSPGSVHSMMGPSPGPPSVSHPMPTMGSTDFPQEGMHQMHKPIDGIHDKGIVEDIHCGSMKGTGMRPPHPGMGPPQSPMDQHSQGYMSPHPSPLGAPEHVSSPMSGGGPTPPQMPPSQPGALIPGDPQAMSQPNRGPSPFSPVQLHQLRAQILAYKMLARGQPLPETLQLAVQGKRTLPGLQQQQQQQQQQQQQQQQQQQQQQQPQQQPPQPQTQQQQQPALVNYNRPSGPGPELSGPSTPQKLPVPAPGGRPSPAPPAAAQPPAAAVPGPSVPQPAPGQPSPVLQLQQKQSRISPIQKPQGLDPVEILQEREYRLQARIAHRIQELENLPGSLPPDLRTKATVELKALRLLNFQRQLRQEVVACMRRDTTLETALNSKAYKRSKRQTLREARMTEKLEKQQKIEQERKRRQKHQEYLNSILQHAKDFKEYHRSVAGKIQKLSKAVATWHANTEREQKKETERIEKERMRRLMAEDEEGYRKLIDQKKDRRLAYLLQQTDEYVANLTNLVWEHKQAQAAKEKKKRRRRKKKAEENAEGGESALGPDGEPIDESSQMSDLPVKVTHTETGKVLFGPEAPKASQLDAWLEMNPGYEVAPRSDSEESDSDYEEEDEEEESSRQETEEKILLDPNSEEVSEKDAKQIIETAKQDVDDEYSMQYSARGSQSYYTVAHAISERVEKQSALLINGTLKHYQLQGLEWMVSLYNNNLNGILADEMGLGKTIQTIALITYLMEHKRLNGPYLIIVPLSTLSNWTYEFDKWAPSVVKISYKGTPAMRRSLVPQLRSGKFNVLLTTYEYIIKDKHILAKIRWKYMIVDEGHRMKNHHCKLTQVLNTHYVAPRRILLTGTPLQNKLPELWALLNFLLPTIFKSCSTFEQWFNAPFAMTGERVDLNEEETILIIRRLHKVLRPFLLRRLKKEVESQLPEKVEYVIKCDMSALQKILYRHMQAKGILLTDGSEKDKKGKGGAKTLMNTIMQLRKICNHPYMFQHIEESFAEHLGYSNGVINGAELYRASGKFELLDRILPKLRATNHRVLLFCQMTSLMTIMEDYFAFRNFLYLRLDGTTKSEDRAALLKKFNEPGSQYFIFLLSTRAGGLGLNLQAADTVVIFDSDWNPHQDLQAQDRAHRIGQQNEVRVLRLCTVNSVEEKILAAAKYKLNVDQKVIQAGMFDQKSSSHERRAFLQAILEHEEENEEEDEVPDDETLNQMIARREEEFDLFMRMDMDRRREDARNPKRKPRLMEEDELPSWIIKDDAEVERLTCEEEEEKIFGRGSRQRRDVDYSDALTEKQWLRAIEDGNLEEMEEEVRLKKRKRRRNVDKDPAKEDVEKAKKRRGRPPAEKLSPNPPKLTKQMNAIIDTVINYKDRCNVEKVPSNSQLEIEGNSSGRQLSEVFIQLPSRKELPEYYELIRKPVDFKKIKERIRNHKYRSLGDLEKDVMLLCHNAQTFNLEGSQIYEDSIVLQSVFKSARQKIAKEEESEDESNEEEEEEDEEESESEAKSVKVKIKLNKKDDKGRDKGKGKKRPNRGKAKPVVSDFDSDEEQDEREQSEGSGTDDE

Row | SMILES | DC50 [1] [nM] | Dmax [1, 3] [%] | DC50 [2] [nM] | Dmax [2] [%] | Dmax ([1]; read-out: SMARC A4 Hela HiBit Dmax(%)) [%]
1 | CC(C)(C)[C@@H](C(=O)N1C[C@H](O)C[C@H]1C(=O)N[C@@H](CN1CCOCC1)c1ccc(-c2scnc2C(F)(F)F)cc1)n1cc([C@H]2CC[C@H](CN3CCC(c4ccc5c(c4)-n4c(nc(=O)c6c(Cl)cccc64)C54CCCCC4)CC3)CC2)nn1 [Compound A167, (2S,4R)-1-((S)-2-(4-((1r,4S)-4-((4-(4′-chloro-5′-oxo-5′H-spiro[cyclohexane-1,7′-indolo[1,2-a]quinazolin]-10′-yl)piperidin-1-yl)methyl)cyclohexyl)-1H-1,2,3-triazol-1-yl)-3,3-dimethylbutanoyl)-4-hydroxy-N—((R)-2-morpholino-1-(4-(4-(trifluoromethyl)thiazol-5-yl)phenyl)ethyl)pyrrolidine-2-carboxamide] | > 1000 | < 50 | > 1000 | < 50 | 
2 | Cc1ncsc1-c1ccc([C@H](CN2CCOCC2)NC(=O)[C@@H]2C[C@@H](O)CN2C(=O)[C@@H](n2cc([C@H]3CC[C@H](CN4CCC(c5ncc6c(n5)-n5c(nc(=O)c7c(Br)cccc75)C65CCCCC5)CC4)CC3)nn2)C(C)(C)C)cc1 [Compound A32, (2S,4R)-1-((S)-2-(4-((1r,4S)-4-((4-(4′-bromo-5′-oxo-5′H-spiro[cyclohexane-1,7′-pyrimido[5′,4′: 4,5]pyrrolo[1,2-a]quinazolin]-10′-yl)piperidin-1-yl)methyl)cyclohexyl)-1H-1,2,3-triazol-1-yl)-3,3-dimethylbutanoyl)-4-hydroxy-N—((R)-1-(4-(4-methylthiazol-5-yl)phenyl)-2-morpholinoethyl)pyrrolidine-2-carboxamide] | > 1000 |  | > 1000 | < 50 | 70 to 90
3 | Cc1ncsc1-c1ccc([C@H](CN2CCOCC2)NC(=O)[C@@H]2C[C@@H](O)CN2C(=O)[C@@H](n2cc([C@H]3C[C@H](CN4CC5(CCC(c6ccc7c(c6)-n6c(nc(=O)c8c(Cl)cccc86)C76CCCCC6)CC5)C4)C3)nn2)C(C)(C)C)cc1 [Compound A88, (2S,4R)-1-((S)-2-(4-((1r,3S)-3-((7-(4′-chloro-5′-oxo-5′H-spiro[cyclohexane-1,7′-indolo[1,2-a]quinazolin]-10′-yl)-2-azaspiro[3.5]nonan-2-yl)methyl)cyclobutyl)-1H-1,2,3-triazol-1-yl)-3,3-dimethylbutanoyl)-4-hydroxy-N—((R)-1-(4-(4-methylthiazol-5-yl)phenyl)-2-morpholinoethyl)pyrrolidine-2-carboxamide] | 10 to 100 | 70 to 90 | 10 to 100 | > 90 | 
4 | Cc1ncsc1-c1ccc([C@H](COCC(=O)O)NC(=O)[C@@H]2C[C@@H](O)CN2C(=O)[C@@H](n2cc([C@H]3CC[C@H](CN4CCC(c5ccc6c(c5)-n5c(nc(=O)c7c(Cl)cccc75)C65CCCCC5)CC4)CC3)nn2)C(C)(C)C)cc1 [Compound A155, 2-((R)-2-((2S,4R)-1-((S)-2-(4-((1r,4S)-4-((4-(4′-chloro-5′-oxo-5′H-spiro[cyclohexane-1,7′-indolo[1,2-a]quinazolin]-10′-yl)piperidin-1-yl)methyl)cyclohexyl)-1H-1,2,3-triazol-1-yl)-3,3-dimethylbutanoyl)-4-hydroxypyrrolidine-2-carboxamido)-2-(4-(4-methylthiazol-5-yl)phenyl)ethoxy) acetic acid] | > 1000 | < 50 | 100 to 1000 | 70 to 90 | 
5 | Cc1ncsc1-c1ccc([C@H](CN2CCOCC2)NC(=O)[C@@H]2C[C@@H](O)CN2C(=O)[C@@H](n2cc([C@H]3CC[C@H](CN4CCC(c5ccc6c(c5)-n5c(nc(=O)c7c(Cl)cccc75)C6(C)C)CC4)CC3)nn2)C(C)(C)C)cc1 [Compound A90] | > 1000 | < 50 | < 10 | > 90 | 
6 | Cc1ncsc1-c1ccc([C@H](CC(=O)O)NC(=O)[C@@H]2C[C@@H](O)CN2C(=O)[C@@H](n2cc([C@H]3CC[C@H](CN4CCC(c5ccc6c(c5)-n5c(nc(=O)c7c(Cl)cccc75)C65CCCCC5)CC4)CC3)nn2)C(C)(C)C)cc1 [Compound A146, (S)-3-((2S,4R)-1-((S)-2-(4-((1r,4S)-4-((4-(4′-chloro-5′-oxo-5′H-spiro[cyclohexane-1,7′-indolo[1,2-a]quinazolin]-10′-yl)piperidin-1-yl)methyl)cyclohexyl)-1H-1,2,3-triazol-1-yl)-3,3-dimethylbutanoyl)-4-hydroxypyrrolidine-2-carboxamido)-3-(4-(4-methylthiazol-5-yl)phenyl) propanoic acid] | > 1000 | < 50 | 10 to 100 | 70 to 90 | 
7 | Cc1ncsc1-c1ccc([C@H](C)NC(=O)[C@@H]2C[C@@H](O)CN2C(=O)[C@H](C2CCN(C(=O)[C@H]3CC[C@H](CN4CCC(c5ccc6c(c5)-n5c(nc(=O)c7c(Cl)cccc75)C65CCCCC5)CC4)CC3)CC2)n2cc(C3CC3)nn2)cc1 [Compound A108, (2S,4R)-1-((S)-2-(1-((1r,4S)-4-((4-(4′-chloro-5′-oxo-5′H-spiro[cyclohexane-1,7′-indolo[1,2-a]quinazolin]-10′-yl)piperidin-1-yl)methyl)cyclohexane-1-carbonyl)piperidin-4-yl)-2-(4-cyclopropyl-1H-1,2,3-triazol-1-yl)acetyl)-4-hydroxy-N—((S)-1-(4-(4-methylthiazol-5-yl)phenyl)ethyl)pyrrolidine-2-carboxamide] | > 1000 | < 50 | < 10 | 70 to 90 | 
8 | Cc1ncsc1-c1ccc([C@H](CN2CCOCC2)NC(=O)[C@@H]2C[C@@H](O)CN2C(=O)[C@H](C2CCCCC2)n2cc(-c3ccc(CN4CCC(c5ccc6c(c5)-n5c(nc(=O)c7c(Br)cccc75)C65CCCCC5)CC4)cc3)nn2)cc1 [Compound A128, (2S,4R)-1-((S)-2-(4-(4-((4-(4′-bromo-5′-oxo-5′H-spiro[cyclohexane-1,7′-indolo[1,2-a]quinazolin]-10′-yl)piperidin-1-yl)methyl)phenyl)-1H-1,2,3-triazol-1-yl)-2-cyclohexylacetyl)-4-hydroxy-N—((R)-1-(4-(4-methylthiazol-5-yl)phenyl)-2-morpholinoethyl)pyrrolidine-2-carboxamide] | > 1000 | < 50 | 100 to 1000 | 50 to 69 | 
9 | Cc1ncsc1-c1ccc([C@H](C)NC(=O)[C@@H]2C[C@@H](O)CN2C(=O)[C@@H](n2cc([C@H]3CC[C@H](CN4CCC(c5ccc6c(c5)-n5c(nc(=O)c7c(Cl)cccc75)C6(C)C)CC4)CC3)nn2)C(C)(C)C)cc1 [Compound A89, (2S,4R)-1-((S)-2-(4-((1r,4S)-4-((4-(4-chloro-7,7-dimethyl-5-oxo-5,7-dihydroindolo[1,2-a]quinazolin-10-yl)piperidin-1-yl)methyl)cyclohexyl)-1H-1,2,3-triazol-1-yl)-3,3-dimethylbutanoyl)-4-hydroxy-N—((S)-1-(4-(4-methylthiazol-5-yl)phenyl)ethyl)pyrrolidine-2-carboxamide] | > 1000 | 50 to 69 | < 10 | > 90 | 
10 | Cc1ncsc1-c1ccc([C@H](CN2CC3(COC3)C2)NC(=O)[C@@H]2C[C@@H](O)CN2C(=O)[C@@H](n2cc([C@H]3CC[C@H](CN4CCC(c5ccc6c(c5)-n5c(nc(=O)c7c(Cl)cccc75)C65CCCCC5)CC4)CC3)nn2)C(C)(C)C)cc1 [Compound A96, (2S,4R)-1-((S)-2-(4-((1r,4S)-4-((4-(4′-chloro-5′-oxo-5′H-spiro[cyclohexane-1,7′-indolo[1,2-a]quinazolin]-10′-yl)piperidin-1-yl)methyl)cyclohexyl)-1H-1,2,3-triazol-1-yl)-3,3-dimethylbutanoyl)-4-hydroxy-N—((R)-1-(4-(4-methylthiazol-5-yl)phenyl)-2-(2-oxa-6-azaspiro[3.3]heptan-6-yl)ethyl)pyrrolidine-2-carboxamide] | > 1000 | 50 to 69 | < 10 | > 90 | 
11 | Cc1ncsc1-c1ccc([C@H](C)NC(=O)[C@@H]2C[C@@H](O)CN2C(=O)[C@H](C2CCN(C)CC2)n2cc([C@H]3CC[C@H](CN4CCC(c5ccc6c(c5)-n5c(nc(=O)c7c(Cl)cccc75)C65CCCCC5)CC4)CC3)nn2)cc1 [Compound A110, (2S,4R)-1-((S)-2-(4-((1r,4S)-4-((4-(4′-chloro-5′-oxo-5′H-spiro[cyclohexane-1,7′-indolo[1,2-a]quinazolin]-10′-yl)piperidin-1-yl)methyl)cyclohexyl)-1H-1,2,3-triazol-1-yl)-2-(1-methylpiperidin-4-yl)acetyl)-4-hydroxy-N—((S)-1-(4-(4-methylthiazol-5-yl)phenyl)ethyl)pyrrolidine-2-carboxamide] | > 1000 | 50 to 69 | 10 to 100 | > 90 | 
